Results on 2 molecules are retold here after patent publication US20040034067A1, “Novel method of treatment” (priority 1999, published 2004).

Format in all cases: cell-based
The subject of assay [1] is PPARgamma mRNA. Kind of assay: PPARgamma mRNA expression during human neutrophil attachment to culture dishes. To be noted: data taken at 1 and 4 hours; human neutrophils (FIG. 1A).
The subject of assay [2] is Gelatinase B mRNA. Nature of the assay: Gelatinase B mRNA expression in attached human neutrophils. The settings on record: 1 μM of compound; 4 hours after neutrophil attachment; human neutrophils (FIG. 1B). Here is the method:
(FIG. 1B): That the increase in Gelatinase B mRNA expression observed 4 hours after neutrophil attachment was reduced by treatment with 1 μM of Compound (I). Time zero (T0) refers to expression in naive human neutrophils prior to attachment.

In assay [3] the test system is MMP-9 release. Nature of the assay: Inhibition of MMP-9 release from human neutrophils (human MMP-9 ELISA). The settings on record: Neutrophil, RPMI 1640 plus 1% BSA, 4 hours, 4 individuals, 4-parameter logistic curve fit. As for the experimental part: FIG. 2: Inhibition of MMP-9 release.by Compound (I)
Neutrophils were isolated by countercurrent centrifugal elutriation to a purity of at least 98% and were maintained in RPMI 1640 plus 1% BSA. Cells were cultured in 48 well plates and attached to the wells within 1 hour of plating. Compound (I) (referred to as“BRL49653” in FIG. 2) was included from the beginning of the experiment. After 4 hours the media was removed and a human MMP-9 ELISA assay (Amersham) was performed. Data (from 4 different individuals) were not suitable for pooling directly, so for the purposes of the figure they were normalised to percentage of no compound control. Asterisks denote p<0.05 using a paired Student's t-test performed on the raw data prior to normalisation.
For orientation: ELISA stands for enzyme-linked immunosorbent assay.

Consider “GM-CSF: GM-CSF, treatment that further enhanced PPARgamma mRNA in attached human neutrophils”, for which the “PPARgamma mRNA during human neutrophil attachment” value in assay [1] is on record as “further enhanced”.

For `CN(CCOc1ccc(CC2SC(=O)NC2=O)cc1)c1ccccn1` (stereo not drawn) [Compound (I), 5-[4-[2-(N-methyl-N-(2-pyridyl)amino)ethoxy]benzyl]thiazolidine-2,4-dione], the “increase in Gelatinase B mRNA expression after neutrophil attachment” value in assay [2] is “reduced”. Moreover, in assay [3], the IC50 came to 0.0106 µM.

A word on the IC50: it is the concentration needed to halve the response being measured.
